Tests used:
P-gp/BCRP = P-gp/BCRP efflux substrate status; assay type: in vitro ADME; conditions: belvarafenib, own experiments
[1] = system: solid tumors harboring mutations in BRAF, KRAS, or NRAS genes; experiment: open-label Phase Ib dose-expansion study; assay type: in vivo, human
Protocol: In another open-label, Phase Ib, dose-expansion study, belvarafenib was evaluated at a dose of 450 mg BID in patients with solid tumors harboring mutations in BRAF, KRAS, or NRAS genes. Efficacy was analyzed for 59 of 63 subjects who had at least 1 dose of belvarafenib after enrollment and had at least 1 post-baseline tumor assessment. BORR was 11.86% (7/59 subjects), ORR was 6.78% (4/59 subjects) with PR as confirmed best overall response (3 subjects with melanoma and a subject with CRC). […] Fifty (84.75%) of 59 subjects developed an event (progression of disease or death), all of which were reported as PD except 1 death case. In addition, median progression-free survival (PFS) was 7.83 weeks and the 95% confidence interval for the median was [7.26 weeks, 8.26 weeks]. Median duration of response (DOR) of a total response in this study was 15.66 weeks from 7 responders.

EPHA2 = EPHA2 (Homo sapiens, UniProt P29317); experiment: panel of 189 kinase assays; assay type: biochemical
[2] = molecular target: discoidin domain receptor tyrosine kinase 1 (DDR1) (Homo sapiens, UniProt Q08345); experiment: panel of 189 kinase assays; assay type: biochemical
EPHB2 = molecular target: T1, EPHB2 (Homo sapiens, UniProt P29323); experiment: panel of 189 kinase assays; assay type: biochemical
T1 sequence (P29323 19-1055): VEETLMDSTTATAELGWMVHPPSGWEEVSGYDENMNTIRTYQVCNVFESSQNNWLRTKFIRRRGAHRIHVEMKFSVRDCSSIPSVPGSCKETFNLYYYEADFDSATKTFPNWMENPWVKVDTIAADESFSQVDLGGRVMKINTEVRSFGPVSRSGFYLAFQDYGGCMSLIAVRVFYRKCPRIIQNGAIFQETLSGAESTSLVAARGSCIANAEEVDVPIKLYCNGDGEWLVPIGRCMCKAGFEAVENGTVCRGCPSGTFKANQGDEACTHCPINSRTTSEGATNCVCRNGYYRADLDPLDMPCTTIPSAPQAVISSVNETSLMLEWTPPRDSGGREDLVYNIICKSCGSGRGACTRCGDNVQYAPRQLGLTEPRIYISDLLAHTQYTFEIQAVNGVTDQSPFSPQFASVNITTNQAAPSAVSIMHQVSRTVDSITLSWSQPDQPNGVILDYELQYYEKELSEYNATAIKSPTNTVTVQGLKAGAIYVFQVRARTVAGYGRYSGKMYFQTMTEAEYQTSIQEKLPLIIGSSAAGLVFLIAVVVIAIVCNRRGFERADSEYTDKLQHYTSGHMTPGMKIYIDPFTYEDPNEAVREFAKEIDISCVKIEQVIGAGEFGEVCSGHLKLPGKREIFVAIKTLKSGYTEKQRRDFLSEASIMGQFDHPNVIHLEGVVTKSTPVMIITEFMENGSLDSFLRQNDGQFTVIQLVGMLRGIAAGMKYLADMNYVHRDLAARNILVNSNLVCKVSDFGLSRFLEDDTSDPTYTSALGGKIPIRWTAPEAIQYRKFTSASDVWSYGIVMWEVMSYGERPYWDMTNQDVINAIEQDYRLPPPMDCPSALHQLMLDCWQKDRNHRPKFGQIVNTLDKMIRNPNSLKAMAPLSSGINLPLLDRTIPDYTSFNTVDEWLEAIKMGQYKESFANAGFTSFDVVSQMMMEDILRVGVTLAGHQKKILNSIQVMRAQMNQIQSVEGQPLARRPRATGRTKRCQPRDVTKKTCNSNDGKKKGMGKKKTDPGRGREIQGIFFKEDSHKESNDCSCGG

[3] = system: solid tumors harboring mutations in BRAF, KRAS, or NRAS genes; experiment: open-label Phase Ia dose-escalation study; assay type: in vivo, human; conditions: for Median DOR: updated
Protocol: For instance, a completed, open-label, Phase Ia, dose-escalation investigated several doses and schedules of belvarafenib in patients with solid tumors harboring mutations in BRAF, KRAS, or NRAS genes. Efficacy was analyzed for 67 of 72 subjects who had at least 1 post-baseline tumor assessment. […] Fifty-nine (88.06%) subjects developed an event (progression of disease or death), all of which were reported as progressive disease (PD). In addition, median progression-free survival was 11.53 weeks and the 95% confidence interval for the median was [7.12 weeks, 13.38 weeks). […] Median DOR was elevated to 30.18 weeks in 800 mg BID group and 23.99 weeks in total group including DOR of a subject which is 100.29 weeks.

Sequence of EPHA2 (P29317 24-976, species assumed): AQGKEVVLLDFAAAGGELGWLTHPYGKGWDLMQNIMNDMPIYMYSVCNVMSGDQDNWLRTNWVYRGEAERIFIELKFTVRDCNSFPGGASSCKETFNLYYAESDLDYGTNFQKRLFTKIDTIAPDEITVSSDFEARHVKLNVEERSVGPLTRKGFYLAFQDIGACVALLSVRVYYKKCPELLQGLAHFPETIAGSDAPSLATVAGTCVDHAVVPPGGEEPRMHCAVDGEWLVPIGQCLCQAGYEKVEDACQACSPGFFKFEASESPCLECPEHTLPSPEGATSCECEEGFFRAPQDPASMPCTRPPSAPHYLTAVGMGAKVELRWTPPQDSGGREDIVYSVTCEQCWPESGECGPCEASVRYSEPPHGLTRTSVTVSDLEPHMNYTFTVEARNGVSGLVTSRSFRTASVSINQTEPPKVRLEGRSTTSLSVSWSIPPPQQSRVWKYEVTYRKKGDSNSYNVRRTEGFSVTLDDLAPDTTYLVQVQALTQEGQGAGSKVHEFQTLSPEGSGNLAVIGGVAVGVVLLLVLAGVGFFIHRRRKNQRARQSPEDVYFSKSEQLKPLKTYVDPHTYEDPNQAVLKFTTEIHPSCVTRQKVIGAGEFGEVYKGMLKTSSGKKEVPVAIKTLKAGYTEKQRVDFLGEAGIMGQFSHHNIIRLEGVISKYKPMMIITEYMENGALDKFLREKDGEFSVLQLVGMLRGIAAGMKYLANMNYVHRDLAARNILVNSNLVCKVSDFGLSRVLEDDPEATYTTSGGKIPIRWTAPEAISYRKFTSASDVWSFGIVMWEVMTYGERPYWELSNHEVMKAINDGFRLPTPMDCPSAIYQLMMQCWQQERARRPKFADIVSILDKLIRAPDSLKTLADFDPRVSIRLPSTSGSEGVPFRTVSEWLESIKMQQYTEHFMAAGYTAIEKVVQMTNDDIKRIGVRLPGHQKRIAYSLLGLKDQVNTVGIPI
Sequence of discoidin domain receptor tyrosine kinase 1 (DDR1) (Q08345 19-913, species assumed): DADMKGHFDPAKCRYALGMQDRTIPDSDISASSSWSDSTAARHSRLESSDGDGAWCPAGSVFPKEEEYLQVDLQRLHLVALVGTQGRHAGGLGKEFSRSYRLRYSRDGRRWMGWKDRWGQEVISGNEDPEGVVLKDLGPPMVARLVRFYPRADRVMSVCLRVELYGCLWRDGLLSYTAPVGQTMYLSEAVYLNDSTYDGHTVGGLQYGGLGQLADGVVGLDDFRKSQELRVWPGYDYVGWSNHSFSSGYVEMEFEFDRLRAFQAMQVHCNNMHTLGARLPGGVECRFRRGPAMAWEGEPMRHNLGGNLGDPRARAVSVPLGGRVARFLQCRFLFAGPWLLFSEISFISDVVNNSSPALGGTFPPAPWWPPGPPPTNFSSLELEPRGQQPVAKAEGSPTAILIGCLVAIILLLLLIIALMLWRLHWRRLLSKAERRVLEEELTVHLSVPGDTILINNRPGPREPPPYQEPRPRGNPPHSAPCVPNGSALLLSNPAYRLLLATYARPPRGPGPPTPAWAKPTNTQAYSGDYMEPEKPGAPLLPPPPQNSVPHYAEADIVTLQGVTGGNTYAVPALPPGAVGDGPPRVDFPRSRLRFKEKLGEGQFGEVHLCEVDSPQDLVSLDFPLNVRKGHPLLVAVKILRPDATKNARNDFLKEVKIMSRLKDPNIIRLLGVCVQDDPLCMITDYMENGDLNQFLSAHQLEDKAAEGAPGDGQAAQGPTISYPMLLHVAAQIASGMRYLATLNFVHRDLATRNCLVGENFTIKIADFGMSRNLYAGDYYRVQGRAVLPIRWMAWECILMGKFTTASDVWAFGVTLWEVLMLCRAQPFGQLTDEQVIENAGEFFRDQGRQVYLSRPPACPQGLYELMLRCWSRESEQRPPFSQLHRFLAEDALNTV

Cc1ccc2c(Nc3cccc(Cl)c3F)nccc2c1NC(=O)c1csc2c(N)ncnc12 [Belvarafenib, 4-amino-N-(1-((3-chloro-2-fluorophenyl)amino)-6-methylisoquinolin-5-yl)thieno[3,2-d]pyrimidine-7-carboxamide]
P-gp/BCRP efflux substrate? (P-gp/BCRP): is not a P-gp and a BCRP efflux substrate and No | Disease control ([1]; 450 mg BID): 35.59% | ORR ([1]; 450 mg BID): 6.78% | median progression-free survival (PFS) ([1]; 450 mg BID): 7.83 weeks | subjects who developed an event (progression of disease or death) ([1]; 450 mg BID): 84.75% | Median duration of response (DOR) ([1]; 450 mg BID, 7 responders): 15.66 weeks | BORR ([1]; 450 mg BID, 59 evaluable subjects): 11.86% | Median DOR ([1]; 2 BRAF-mutant melanoma responders): 22.49 weeks | inhibition at 1 µM (EPHA2): > 90% | inhibition at 1 µM [2]: > 90% | inhibition at 1 µM (EPHB2): > 90% | Median DOR ([3]; 800 mg BID group): 30.18 weeks | Best overall response rate (BORR) ([3]; 67 evaluable subjects): 8.96% | objective response rate (ORR) ([3]; 67 evaluable subjects): 4.48% | subjects who developed an event (progression of disease or death) ([3]; 67 evaluable subjects): 88.06% | BORR, subgroup re-analysis ([3]; BRAF-mutant melanoma subjects (13)): 7.69% | median progression-free survival ([3]; in vivo): 11.53 weeks | DOR of a subject ([3]; single subject): 100.29 weeks | Disease control ([3]; subjects treated with 100 mg QD dose level or above): 50.57% | Median DOR ([3]; total group): 23.99 weeks | BORR, updated results ([3]; updated results): 10.45% | ORR, updated results ([3]; updated results): 4.48%

— patent US20240173329A1, “BELVARAFENIB FOR USE IN TREATMENT OF BRAIN CANCERS” (Genentech, Inc., priority 2021, published 2024)
